These results are taken from patent US5612341A, “Brominated hexahydroxybiphenyl derivatives” (Biotech Research Laboratories, priority 1995, dated 1997).

For test [1], the system named is HIV-1 (IIIB isolate). As to conditions: background section; cited from earlier work.
Another test has as its system H9 T cell line. The experiment in a line: Toxicity to uninfected H9 cells (cell count). The class given is cell-based. Here is the method: (§1) The H9 T cell line was maintained in continuous culture with complete medium (RPMI and 10% fetal calf serum) at 5% CO2 and 37° C. and was used in experiments only when in log phase of growth. The cells were incubated with HIV-1 (IIIB isolate, TCID50 10^4 IU/mL, at a multiplicity of infection of 0.1-0.01 IU/cell) for 1 hour at 37° C. and 5% CO2. The cells then were washed thoroughly to remove unabsorbed virions and resuspended at 4×10^5 cells/mL in complete medium. Aliquots (1 mL) were placed in wells of 24-well culture plates containing an equal volume of test compound (diluted in the culture medium). After a four day incubation at 37° C., cell density of uninfected cultures was determined by counting cells in a Coulter counter to assess toxicity of the test compound. A p24 antigen ELISA assay was used to determine the level of virus released in the medium of the HIV-infected cultures. The p24 antigen assay uses an HIV-1 anti-p24 specific monoclonal antibody as the capture antibody coated on 96 well plates. Following a sample incubation period, rabbit serum containing antibodies for HIV-1 p24 is used to tag any p24 "captured" onto the microtiter well surface. […] The cut-off for the p24 ELISA assay is 12.5 pg/mL. P24 in the culture medium was quantitated against a standard curve containing known amounts of p24. The effective (EC50) and inhibitory concentrations (for anti-HIV activity and cytotoxicity, respectively) were determined.

For test [2], the system named is HIV-1 (IIIB isolate). The experiment in a line: microbe, parasite or virus in culture. The class given is cell-based. The note with it: for Therapeutic Index: 5760 min. Here is the method: as §1
The target in test [3] is HIV-1 reverse transcriptase (Human immunodeficiency virus type 1 group M subtype B, UniProt P04585). As to conditions: more with Poly(rC)-olig(dG) than with Poly(rA)-olig(dT); cited from earlier work.

Converted amounts (≈) assume the structure as drawn.

As a reminder, the IC50 is the point on the concentration scale where inhibition reaches its midpoint. What is called EC50 is the concentration giving half of the maximal effect. In the case of `COC(=O)c1cc(OC)c2c(c1-c1c(C(=O)OC)cc(OC)c3c1OCO3)OCO2` [Compound 3, 4,4'-dimethoxy-5,6,5'6'-dimethylenedioxy-2,2'-dimethoxycarbonyl biphenyl, reference compound], the TI in the test with HIV-1 (IIIB isolate) [1] was > 20. Further, the IC50 in the test on H9 T cell line (Homo sapiens, H9) is > 100 µg/mL; with H9 T cell line (T-cell), > 100 µg/mL. The response with HIV-1 (IIIB isolate) [2] (Human immunodeficiency virus 1, IIIB, Lymphocyte) was half-maximal at 5 µg/mL (≈ 12 µM) (EC50). Further, the “Therapeutic Index” value was > 20 in the test with HIV-1 (IIIB isolate) [2] (Table I, IC50/EC50) and > 20 with HIV-1 (IIIB isolate) [2] (Table IA, ratio IC50/EC50).

As for `Cc1ccnc2c1NC(=O)c1cccnc1N2C1CC1` [Nevarapine], the “inhibitory activity using Poly(rC)-olig(dG) versus Poly(rA)-olig(dT)” value in test [3] is recorded as “more inhibitory activity”.
